# Where two headings read alike, the source gives them in different places.
# Assays:
# [1] = Stability test in human plasma; assay type: in vitro ADME; conditions: pH 7.4, 37 °C, up to 24 h, read-out: Plasma Stab. (T1/2, h ± SD) (converted)
# Protocol: Finally, compounds were incubated in human plasma at 37 °C for 24 h. […] Taken together, stability studies confirmed that the series is suitable for further development.
# (§1) For the ADME property determination, an Agilent 1260 Infinity HPLC-DAD interfaced with an Agilent MSD 6130 (Agilent Technologies, Palo Alto, CA, USA) was used. Chromatographic conditions were optimized using a Phenomenex Kinetex C18-100 Å column (150 × 4.6 mm) with 5 µm particle size and gradient elution with a binary solution (eluent A: H2O; eluent B: ACN; both eluents were acidified with formic acid 0.1% v/v) at room temperature. The LC analyses started with 5% of B (from t = 0 to t = 1 min), then B was increased to 95% (from t = 1 to t = 10 min) and then kept at 95% (from t = 10 to t = 19 min) and finally returned to initial conditions in 1.0 min. The flow rate was 0.6 mL/min and the injection volume was 10 µL.
# A stock solution of the target compound in DMSO (2 mM) was incubated in a test tube with pooled human plasma (55.7 mg protein/mL) and HEPES buffer (25 mM, 140 mM NaCl pH 7.4) up to a final volume of 1.0 mL. The mixture was incubated at 37 °C, and at set time points (0.0, 0.5, 1, 4, 8, 24 h), samples of 50 µL were taken, mixed with 400 µL of ACN to stop the reaction of plasmatic esterases, and centrifuged at 5000 rpm for 15 min. The supernatant was removed and analyzed using the LC-UV/MS method previously described. The half-life (t½) was calculated according to the following equation: t½=ln 2/k where k represents the substrate elimination constant. For each compound, the determination was performed in three independent experiments.
# ZIKV NS5 MTase = target: T1, ZIKV NS5 MTase (Zika virus, UniProt A0A024B7W1); assay: ZIKV NS5 MTase radioactive filter-binding assay (2′-O-MTase activity); assay type: biochemical; conditions: at least two experiments; for IC50: read-out: IC50 (half-maximal inhibitory enzymatic concentration)
# T1 construct: KJ776791.2, aa 4–278; His6 (N); made in house; host or cells: Escherichia coli T7 Express Iq
# Protocol: Selected compounds were evaluated in enzymatic inhibition assays against both ZIKV and DENV 2′-O-MTase activity (For details, see Figure S3 in Supplementary Materials). The screening of compounds at a concentration of 50 µM highlighted a higher inhibitory activity against ZIKV MTase. We thus focused our efforts on ZIKV and determined the IC50 values against ZIKV MTase.
# Expression and purification of ZIKV NS5 MTase: The coding sequence of the ZIKV NS5 MTase domain (strain H/PF/2013, GenBank accession no. KJ776791.2, aa 4–278) was synthesized by Genscript and cloned into a pQE30 vector (Qiagen, Hilden, Germany) with an N-terminal His6 tag. The protein was expressed and purified following the procedures described in Coutard et al..
# Briefly, after expression in Escherichia coli T7 Express Iq (New England BioLabs) in Terrific Broth at 17 °C overnight, bacterial pellets were resuspended in lysis buffer (50 mM Tris-HCl [pH 8], 300 mM NaCl, 5% glycerol, 0.1% Triton, 10 μg/mL DNase I, 2 tablets of EDTA-free antiprotease cocktail [Roche] and 0.25 mg/mL lysozyme). Following cell lysis and clarification, the protein was purified by affinity on immobilized metal affinity chromatography (IMAC, His prep column [GE Healthcare]), followed by size exclusion chromatography (Superdex S75 HR 16/20 column [GE Healthcare]). The NS5-MTase was concentrated and stored at −20 °C after adding glycerol to a final concentration of 40%.
# Filter-binding assay: The transfer of tritiated methyl from ^[3H]SAM onto RNA substrate was monitored by a filter-binding assay (FBA), performed according to the method described previously. FBA was carried out in a reaction mixture [40 mM Tris-HCl (pH 8.0), 1 mM DTT, 2 μM SAM, and 0.1 μM 3H-SAM (Perkin Elmer, Shelton, CT, USA)] in the presence of 0.7 μM synthetic ^7mGpppAC4 and ZIKV NS5 MTase (500 nM). The enzyme was first mixed with an increasing concentration of inhibitors, previously suspended in dimethyl sulfoxide (DMSO), before the addition of RNA substrate and SAM, and then incubated at 30 °C. The final DMSO concentration in reactions was 5%. Reaction mixtures were stopped after 30 min incubation by their 10-fold dilution in ice-cold water. Samples were transferred to diethylaminoethyl (DEAE) filtermat (Perkin Elmer, Shelton, CT, USA) using a Filtermat Harvester (Packard Instruments, Meriden, CT, USA). The RNA-retaining mats were washed twice with 10 mM ammonium formate pH 8.0, twice with water, and once with ethanol before drying. They were soaked with scintillation fluid (Perkin Elmer, Shelton, CT, USA), and 3H-methyl transfer to the RNA substrates was determined using a Wallac MicroBeta TriLux Liquid Scintillation Counter (Perkin Elmer, Shelton, CT, USA). For IC50 measurements, values were normalized and fitted with Prism (GraphPad software version 10.1.1) using the following equation: Y = 100/(1 + ((X/IC50) ^ Hillslope)).
# [2] = Metabolic stability in human liver microsomes; assay type: in vitro ADME; conditions: 1 h, 37 °C, three experiments
# Protocol: The metabolic stability was investigated by incubating selected compounds with human liver microsomes (HLMs) for 1 h at 37 °C. The percentage of non-metabolized compounds and metabolites was analyzed by HPLC-UV-MS. […] HPLC analysis confirmed the presence of the oxidated metabolites in small percentages.
# as §1
# The test was performed as previously reported with minor modifications. Each compound was dissolved in DMSO and phosphate buffer (0.025 M, pH 7.4), and human liver microsomes (0.2 mg/mL) and a NADPH-regenerating system in MgCl2 48 mM were added to a final volume of 500 µL. This solution was incubated for 1 h at 37 °C and then the reaction was stopped and quenched using 1 mL of ACN. The reaction mixtures were then centrifuged (4000 rpm for 10 min) and the supernatant was taken, dried under nitrogen flow, and then resuspended in 100 µL of methanol. The parent drug and metabolites were subsequently determined using the chromatographic conditions described above. The percentage of non-metabolized compounds was calculated by comparison with reference solutions. The determination of metabolic stability for each compound was performed in three independent experiments.
# [3] = Cytotoxicity assay (MTT) on Vero E6 cells; assay type: cell-based; conditions: African green monkey
# Protocol: Compounds characterized by the best anti-enzymatic activity were tested against ZIKV in cellular assays. VERO E6 cells were infected with ZIKV at a multiplicity of infection (M.O.I.) of 0.1, and their activities were evaluated by a plaque reduction assay three days post-infection. Ribavirin was used as a reference compound. As reported in Table 2, compound 1, identified in the first screening, was unable to inhibit viral replication up to a 100 μM concentration. […] The cytotoxicity of the series was determined on the same cell line. […] Their selectivity indexes were calculated as the ratio between CC50 and IC50 values; the results highlight their promising safety profile.
# Monolayers of 2.5 × 10^4 Vero E6 cells per well were grown in flat-bottom 96-well culture plates and allowed to adhere overnight. Then, when the cell layers were confluent, the medium was removed, the wells were washed twice with PBS, treated with 100 µL of DMEM with 10 µL DMSO alone (cell positive control) or with various concentrations of anti-NS5 inhibitory compounds under study (compound final concentrations of 100, 10, 1, 0.1, and 0.01 μM), and incubated for 3 days at 37 °C in a CO2. After treatment, an MTT (3-(4,5-dimethylthiazol-2-yl)-2,5-diphenyltetrazolium bromide) kit (Roche, Milan, Italy) was used according to the supplier’s instructions, and the absorbance of each well was determined using a microplate spectrophotometer at a wavelength of 570 nm. Cytotoxicity was calculated by dividing the average optical density of treated samples by the average of DMSO-treated samples (cell positive control).
# ZIKV [4] = assay: ZIKV inhibitory viral plaque reduction assay in Vero E6 cells; assay type: cell-based, Zika virus; conditions: for IC50: Zika virus
# ZIKV [5] = conditions: cited from earlier work
# DENV MTase = DENV MTase enzymatic inhibition assay; assay type: biochemical, Dengue virus; conditions: read-out: IC50 against DENV MTase
# Description: Firstly, a pharmacophoric model was developed taking into consideration the most populated interactions (Figure 1C). The pharmacophore was used to perform a first screening, choosing molecules matching the pharmacophore features representing the interactions of the SAM adenine group and at least one of the two groups of features representing the interaction of SAM methionine moieties, with the aim of identifying compounds able to form interactions within both the adenine and the methionine subpockets of the SAM-binding site. The obtained results were then subjected to docking analysis using Glide XP, Glide SP, and GOLD (using the GoldScore fitness function). At the end of each docking procedure, a post-docking filter was applied to check whether the desired pharmacophoric interactions were maintained in the predicted binding modes of the docked compounds. Only the ligands for which a common binding mode matching the desired pharmacophore features was predicted by all the docking software were retained and then subjected to clustering and visual inspection. […]
# Selected compounds were evaluated in enzymatic inhibition assays against both ZIKV and DENV 2′-O-MTase activity (For details, see Figure S3 in Supplementary Materials). […] We thus focused our efforts on ZIKV and determined the IC50 values against ZIKV MTase.
# [6] = VERO E6 cells, MTT, 3 days, read-out: CC50 ± SD (half-maximal cytotoxic concentration)
# [7] = Vero C1008, read-out: IC50 ± SD (half-maximal inhibitory concentration, ZIKV plaque reduction)
# T1 sequence (A0A024B7W1 2524-2798): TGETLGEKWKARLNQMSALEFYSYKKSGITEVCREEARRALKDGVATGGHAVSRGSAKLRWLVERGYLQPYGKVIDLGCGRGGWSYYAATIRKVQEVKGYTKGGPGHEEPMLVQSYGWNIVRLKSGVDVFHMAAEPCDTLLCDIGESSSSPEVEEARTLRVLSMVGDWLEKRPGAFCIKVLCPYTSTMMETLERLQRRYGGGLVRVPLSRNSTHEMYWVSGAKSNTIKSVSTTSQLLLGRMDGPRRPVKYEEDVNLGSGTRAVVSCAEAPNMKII
smiles,measurement,setting,value
Cc1cccc2cc(C(=O)Nc3ccc4c(c3)C(=O)N(C)C4=O)sc12 [Compound 20],half-life,[1],> 24 h
same,IC50,ZIKV NS5 MTase,18.9 µM
same,HLM Stab.% ± SD (percentage of non-metabolized compound),[2],98.40 ± 0.12%
same,CC50 at 3 days,[3]; [6],> 100 µM
same,"SI (Selectivity Index, ratio between CC50 and IC50)",ZIKV [4]; VERO E6 cells,>15.15
same,IC50,ZIKV [4]; [7],6.6 ± 0.5 µM
"NC(=O)c1ncn([C@@H]2O[C@H](CO)[C@@H](O)[C@H]2O)n1 [ribavirin, 1-β-d-Ribofuranosyl-1,2,4-Triazole-3-Carboxamide, reference compound]",EC50 against ZIKV,ZIKV [5],high micromolar range
same,CC50 at 3 days,[3],100 ± 14 µM
same,"SI (Selectivity Index, ratio between CC50 and IC50)",ZIKV [4]; VERO E6 cells,1.05
same,IC50,"ZIKV [4]; Vero C1008, VERO E6 cells, ZIKV M.O.I. 0.1, at least two experiments, read-out: IC50 ± SD (half-maximal inhibitory concentration, ZIKV plaque reduction)",95.5 ± 0.6 µM
CNC(=O)c1cccc(NC(=O)c2cc3ccccc3s2)c1 [Compound 12],IC50 (half-maximal inhibitory enzymatic concentration),ZIKV NS5 MTase,completely abolished the activity
same,IC50,ZIKV NS5 MTase,> 100 µM
CN1C(=O)c2ccc(NC(=O)c3cc4ccccc4o3)cc2C1=O [Compound 9],IC50 (half-maximal inhibitory enzymatic concentration),ZIKV NS5 MTase,completely inactive
same,IC50,ZIKV NS5 MTase,> 100 µM
CN1C(=O)c2ccc(NC(=O)c3cc4cc(Cl)ccc4s3)cc2C1=O [Compound 15],half-life,[1],> 24 h
same,IC50,ZIKV NS5 MTase,14.2 µM
same,HLM Stab.% ± SD (percentage of non-metabolized compound),[2],98.57 ± 0.07%
same,CC50 at 3 days,[3]; [6],> 100 µM
same,"SI (Selectivity Index, ratio between CC50 and IC50)",ZIKV [4]; VERO E6 cells,>71.43
same,IC50,ZIKV [4]; [7],1.4 ± 0.3 µM
O=C(Nc1ccccc1)c1cc2cc([N+](=O)[O-])ccc2s1 [Compound 7],IC50,ZIKV NS5 MTase,57 µM
CN1C(=O)c2ccc(NC(=O)c3cc4cc([N+](=O)[O-])ccc4o3)cc2C1=O [Compound 8],half-life,[1],7.31 ± 0.17 h
same,IC50,ZIKV NS5 MTase,22.6 µM
same,HLM Stab.% ± SD (percentage of non-metabolized compound),[2],96.93 ± 0.57%
same,CC50 at 3 days,[3]; [6],> 100 µM
same,"SI (Selectivity Index, ratio between CC50 and IC50)",ZIKV [4]; VERO E6 cells,>52.63
same,IC50,ZIKV [4]; [7],1.9 ± 0.3 µM
NS(=O)(=O)c1cccc(NC(=O)c2cc3cc([N+](=O)[O-])ccc3s2)c1 [Compound 4],IC50,ZIKV NS5 MTase,34 µM
CN1C(=O)c2ccc(NC(=O)c3cc4cc([N+](=O)[O-])ccc4s3)cc2C1=O [Compound 3],IC50,ZIKV NS5 MTase,16.6 µM
same,CC50 at 3 days,[3]; [6],> 100 µM
same,"SI (Selectivity Index, ratio between CC50 and IC50)",ZIKV [4]; VERO E6 cells,>3.49
same,IC50,ZIKV [4]; [7],28.6 ± 1.3 µM
O=C(Nc1ccc2c(c1)C(=O)NC2)c1cc2cc([N+](=O)[O-])ccc2s1 [Compound 2],IC50,ZIKV NS5 MTase,20 µM
CN1C(=O)c2ccc(NC(=O)c3cc4c(Cl)cccc4s3)cc2C1=O [Compound 18],IC50,ZIKV NS5 MTase,100 µM
CCN(CC)CCCC(C)Nc1ccnc2cc(Cl)ccc12 (stereo not drawn) [chloroquine],EC50,ZIKV [5]; read-out: in vitro EC50 against ZIKV,~5 µM
CNC(=O)c1ccc(NC(=O)c2cc3ccccc3s2)cc1 [Compound 11],IC50 (half-maximal inhibitory enzymatic concentration),ZIKV NS5 MTase,completely abolished the activity
same,IC50,ZIKV NS5 MTase,> 100 µM
CN1C(=O)c2ccc(NC(=O)c3sc4ccccc4c3Cl)cc2C1=O [Compound 16],IC50,ZIKV NS5 MTase,13.1 µM
same,CC50 at 3 days,[3]; [6],> 100 µM
same,"SI (Selectivity Index, ratio between CC50 and IC50)",ZIKV [4]; VERO E6 cells,>38.46
same,IC50,ZIKV [4]; [7],2.6 ± 0.2 µM
O=C(Nc1ccc2c(c1)C(=O)NC2)c1cc2ccccc2s1 [Compound 13],IC50,ZIKV NS5 MTase,46 µM
Cc1ccc2sc(C(=O)Nc3ccc4c(c3)C(=O)N(C)C4=O)cc2c1 [Compound 19],IC50,ZIKV NS5 MTase,40 µM
NC(=O)c1ccc(NC(=O)c2cc3cc([N+](=O)[O-])ccc3s2)cc1 [Compound 5],IC50,ZIKV NS5 MTase,37 µM
O=C(Nc1ccc2c(c1)C(=O)NC2=O)c1cc2cc([N+](=O)[O-])ccc2s1 [Compound 1],IC50,ZIKV NS5 MTase,53 µM
same,IC50,DENV MTase,69 µM
same,CC50 at 3 days,[3]; [6],> 100 µM
same,IC50,ZIKV [4]; [7],> 100 µM
O=C(O)c1ccc(NC(=O)c2cc3cc([N+](=O)[O-])ccc3s2)cc1 [Compound 6],IC50,ZIKV NS5 MTase,50 µM
CN1C(=O)c2ccc(NC(=O)c3cc4ccccc4s3)cc2C1=O [Compound 14],IC50,ZIKV NS5 MTase,31 µM
NC(=O)c1ccc(NC(=O)c2cc3ccccc3s2)cc1 [Compound 10],IC50,ZIKV NS5 MTase,36 µM
